# Assay results reported in US20210317505A1, “IMPROVED DETECTION OF ANTICOAGULANTS IN BODY FLUIDS” (DOASENSE GmbH, priority 2017, published 2021).
# Several values for one entry are separate records, joined by “and”; a condition that tells them apart may be missing. Identical values can stand only once. Like-named read-outs stand apart in the source and are kept apart here.
# Target: factor Xa (Homo sapiens, UniProt P00742)
# Conditions: for difference in reflectance units for the minimum and maximum concentration: 0 ng/mL vs. 1500 ng/mL, native urine; for intensity, mean, Laura Smart No. 1 / intensity, mean, Laura Smart No. 2 / intensity, mean, Laura Smart No. 3 / intensity, mean, all readers / intensity, single, Laura Smart No. 1 / intensity, single, Laura Smart No. 2 / intensity, single, Laura Smart No. 3: 380 nm
# Source text: Using a modified reflectance photometer, hereinafter also referred to as reader (Laura Smart (LS), ERBA Lachema), native urine samples were investigated using excitation light having either a wavelength of 380 nm or a wavelength of 470 nm. Herein, the samples under investigation contained the direct factor Xa inhibitor rivaroxaban or the direct thrombin inhibitor dabigatran. For each anticoagulant, samples with different concentrations were provided.
# Test strips were used on which both the blood clotting factor (factor Xa or thrombin) and the respective chromogenic substrate conjugated to a detectable substance were immobilized, i.e. N-benzoyl-L-isoleucyl-L-glutamyl-L-glycyl-L-arginine-para-nitroaniline (SEQ ID NO:1) together with factor Xa, and N-(para-tosyl)-glycyl-L-prolyl-L-arginine-para-nitroanilide acetate together with thrombin. After dipping the test strip into the urine sample to be investigated for 2 to 3 seconds, incubation was allowed for 10 min. Then, the test strip was inserted into the reader. In total, three different readers (“Laura No. 1”, “Laura No. 2”, and “Laura No. 3”) were used in order to check for any device-specific issues.
# In order to suppress fluorescence light which might originate from the released detestable substance (para-nitroaniline), a UV band-pass filter was used made of UG11 glass (Schott AG).
# For each single measurement, an intensity value was put out by the respective reader, given in reflectance units (% REM). Each of the readers was able to split up the measured intensity into 1000 increments.
# Generally, the higher the concentration of the anticoagulant in the sample, the less detectable substance is released from the chromogenic substrate by the corresponding blood dotting factor. Accordingly, in case of a high concentration of the anticoagulant, the absorption by the sample is low while the reflectance by the sample is high. In order to reliably evaluate the presence or absence of the anticoagulant in the sample, as a general rule, a low concentration of the anticoagulant in the sample should result in a % REM value as low as possible, while a high concentration of the anticoagulant in the sample should result in a % REM value as high as possible. In other words, the difference in reflectance units for the minimum and maximum concentration of the anticoagulant should be as large as possible.
# [1] = rivaroxaban 100 ng/mL in native urine
# [2] = rivaroxaban 200 ng/mL in native urine
# [3] = rivaroxaban 400 ng/mL in native urine
# [4] = rivaroxaban 1500 ng/mL in native urine
# factor Xa, sequence (P00742 235-488 limits assumed): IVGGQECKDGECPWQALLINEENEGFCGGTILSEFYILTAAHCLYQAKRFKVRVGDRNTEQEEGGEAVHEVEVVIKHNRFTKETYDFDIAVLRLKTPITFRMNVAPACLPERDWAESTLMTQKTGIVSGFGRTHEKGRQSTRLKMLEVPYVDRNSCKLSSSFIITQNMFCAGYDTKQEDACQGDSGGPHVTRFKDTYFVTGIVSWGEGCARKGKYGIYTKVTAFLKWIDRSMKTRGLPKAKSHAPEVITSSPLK
# factor Xa, sequence (P00742 41-179 partner limits assumed): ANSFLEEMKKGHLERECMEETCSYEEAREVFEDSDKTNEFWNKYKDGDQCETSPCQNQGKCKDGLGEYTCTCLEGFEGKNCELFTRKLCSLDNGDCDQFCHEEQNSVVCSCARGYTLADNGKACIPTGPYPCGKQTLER
smiles,measurement,setting,value
O=C(NC[C@H]1CN(c2ccc(N3CCOCC3=O)cc2)C(=O)O1)c1ccc(Cl)s1 [rivaroxaban],difference in reflectance units for the minimum and maximum concentration,excitation light 380 nm,about 400 % REM
same,difference in reflectance units for the minimum and maximum concentration,excitation light 470 nm,about 200 % REM
same,change of the measured intensity with concentration,"dark urine samples, excitation light 380 nm",possible to observe a change of the measured intensity with the concentration
same,"intensity, mean, Laura Smart No. 1",[1],181 % REM
same,"intensity, mean, Laura Smart No. 2",[1],194 % REM
same,"intensity, mean, Laura Smart No. 3",[1],199 % REM
same,"intensity, mean, all readers",[1],191 % REM
same,"intensity, single, Laura Smart No. 1",[1],192 % REM and 159 % REM and 193 % REM
same,"intensity, single, Laura Smart No. 2",[1],194 % REM and 191 % REM and 196 % REM
same,"intensity, single, Laura Smart No. 3",[1],202 % REM and 196 % REM and 199 % REM
same,"intensity, mean, Laura Smart No. 1",[2],276 % REM
same,"intensity, mean, Laura Smart No. 2",[2],266 % REM
same,"intensity, mean, Laura Smart No. 3",[2],315 % REM
same,"intensity, mean, all readers",[2],286 % REM
same,"intensity, single, Laura Smart No. 1",[2],254 % REM and 336 % REM and 238 % REM
same,"intensity, single, Laura Smart No. 2",[2],279 % REM and 265 % REM and 253 % REM
same,"intensity, single, Laura Smart No. 3",[2],304 % REM and 342 % REM and 299 % REM
same,"intensity, mean, Laura Smart No. 1",[3],387 % REM
same,"intensity, mean, Laura Smart No. 2",[3],425 % REM
same,"intensity, mean, Laura Smart No. 3",[3],387 % REM
same,"intensity, mean, all readers",[3],400 % REM
same,"intensity, single, Laura Smart No. 1",[3],346 % REM and 406 % REM and 409 % REM
same,"intensity, single, Laura Smart No. 2",[3],431 % REM and 413 % REM
same,"intensity, single, Laura Smart No. 3",[3],423 % REM and 411 % REM and 326 % REM
same,"intensity, mean, Laura Smart No. 1",[4],542 % REM
same,"intensity, mean, Laura Smart No. 2",[4],518 % REM
same,"intensity, mean, Laura Smart No. 3",[4],496 % REM
same,"intensity, mean, all readers",[4],519 % REM
same,"intensity, single, Laura Smart No. 1",[4],537 % REM and 528 % REM and 560 % REM
same,"intensity, single, Laura Smart No. 2",[4],588 % REM and 468 % REM and 499 % REM
same,"intensity, single, Laura Smart No. 3",[4],501 % REM and 510 % REM and 476 % REM
